Assay results published in patent US11578055B2, “Triazacyclododecansulfonamide (“TCD”)-based protein secretion inhibitors” (KEZAR LIFE SCIENCES, priority 2018, dated 2023).

How the values were obtained:
[1] = system: multiple myeloma cell line NCl-H929; assay: H929 Cell Viability Assay; type: cell-based, human; conditions: Homo sapiens, NCI-H929, 48 h, H929, Celltiter-Glo
Method in brief: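 NCI-H929 myeloma cells in RPMI 1640 with 10% FBS were treated with compound dilutions for 48 h at 37 °C, and viability was then read by CellTiter-Glo luminescence. Compounds drawn without stereochemistry were tested as stereoisomer mixtures.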

[2] = system: full length IL-2 (amino acids 1-153) fused to Gaussia Luciferase; assay: Dox Induced IL2-FL-Gluc Assay; type: cell-based; conditions: 24 hr, Dox inducible, 293FRT/TO cells; read-out: 24 hr Dox Inducible IL2FLGluc 293FRT/TO: Mean IC50
Method in brief: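 Flp-In 293 T-REx stable line expressing full-length IL-2 (aa 1-153) with C-terminal Gaussia luciferase fusion under doxycycline-inducible control. Cells plated the day before; compound dilutions added in DMSO/media containing doxycycline, incubated at 37° C, 5% CO2.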

[3] = system: multiple myeloma cell line U266B1; assay: U266 Cell Viability Assay; type: cell-based, human; conditions: Homo sapiens, U-266; 48 hr, U266, Celltiter-Glo
Method in brief: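 U266B1 myeloma cells in RPMI 1640 with 10% FBS were treated with compound dilutions for 48 h at 37° C, 5% CO2. Viability was read as CellTiter-Glo luminescence. Data for structures drawn without stereochemistry refer to stereoisomer mixtures.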

[4] = In Vitro Microsome Stability Assay (rat); type: in vitro ADME; conditions: rat liver microsomes, 30 min w/ NADPH
Method in brief: (§1)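 Test article, added from a 0.25 mM DMSO stock, was incubated with liver microsomes (20 mg/mL stock) in 0.1 M potassium phosphate at 37° C, with the reaction started by NADPH. Samples were quenched with acetonitrile containing internal standard at 0 and 30 min and analysed by LC-MS/MS. Values are % remaining at 30 min versus 0 min, using IS-normalised AUC ratios.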

[5] = system: PD1 signal sequence plus 10 amino acids fused to Gaussia Luciferase (PD1-ss+10aa/Gaussia Luciferase); assay: Dox Induced PD1-ss-Gluc Assay; type: cell-based; conditions: 24 hr, Dox inducible, 293FRT/TO cells; read-out: 24 hr Dox Inducible PD1ssGluc 293FRT/TO: Mean IC50
Method in brief: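 Stable Flp-In 293 T-REx line expressing the fusion under tetracycline-inducible control, plated the day before assay. Compound dilutions added with doxycycline and incubated at 37 °C, 5% CO2; unspecified stereocentres mean data refer to stereoisomer mixtures.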

[6] = system: full length TNFα (amino acids 1-233) fused to Gaussia Luciferase; assay: Dox Induced TNFα-FL-Gluc Assay; type: cell-based; conditions: 24 hr, Dox inducible, 293FRT/TO cells; read-out: 24 hr Dox Inducible TNFaFLGluc 293FRT/TO: Mean IC50
Method in brief: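 Stable Flp-In 293 T-REx line expressing doxycycline-inducible full-length TNFα fused to Gaussia luciferase; cells plated the day before, then treated with compound dilutions in doxycycline-containing medium at 37° C, 5% CO2. Unspecified stereocentres mean stereoisomer mixtures were tested.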

[7] = system: HER3 signal sequence plus 4 amino acids fused to Gaussia Luciferase (HER3-ss+4aa/Gaussia Luciferase); assay: Dox Induced HER3-ss-Gluc Assay; type: cell-based; conditions: 24 hr, doxycycline induced, Flp-In 293 T-REx cells; read-out: 24 hr Dox Inducible Her3(ss + 4) Gluc 293FRT/TO: Mean 1050
From the text: FIp-In 293 T-REx™ cells were transfected with pcDNA™5/FRT/TO plasmid inserted with cDNA encoding Gaussia Luciferase fused to the 3′ end of cDNA encoding HER3 signal sequence plus 4 amino acids (N-[…]-C) (SEQ ID NO: 2). Transfected cells were selected for resistance to the selectable markers Hygromycin and Blasticidin to create a stable cell line that contained the HER3-ss+4aa/Gaussia Luciferase cDNA insert whose expression was regulated under the T-REx™ system. The day before assay, cells were trypsinized and plated in 384-well tissue culture plates. The next day, compound dilutions in DMSO/media containing doxycycline were added to the wells and incubated at 37° C., 5% CO2.
For chemical structures that include one or more stereoisomers, but are illustrated without indicating stereochemistry, the assay data refers to a mixture of stereoisomers.

[8] = In Vitro Microsome Stability Assay (monkey); type: in vitro ADME; conditions: monkey liver microsomes, 30 min w/ NADPH
Method in brief: as §1

[9] = In Vitro Microsome Stability Assay (mouse); type: in vitro ADME; conditions: mouse liver microsomes, 30 min w/ NADPH
Method in brief: as §1

[10] = In Vitro Microsome Stability Assay (human); type: in vitro ADME; conditions: human liver microsomes, 30 min w/ NADPH
Method in brief: as §1

EC50 [1] [µM]	IC50 [2] [µM]	EC50 [3] [µM]	Liver Microsome Stability-% Left after 30 min w/ NADPH (%) Rat [4] [%]	IC50 [5] [µM]	IC50 [6] [µM]	IC50 [7] [µM]	Liver Microsome Stability-% Left after 30 min w/ NADPH (%) Monkey [8] [%]	Liver Microsome Stability-% Left after 30 min w/ NADPH (%) Mouse [9] [%]	Liver Microsome Stability-% Left after 30 min w/ NADPH (%) Human [10] [%]	SMILES
2.91	0.176	> 25	50.8	0.0566	2.05	0.13	38.3	55.0	13.3	COc1ccc(N2CCN(S(=O)(=O)N3CCCN(CC4CCCCC4)CCCN(S(=O)(=O)c4ccc(N(C)C)cc4)C[C@H](C)C3)CC2)cc1F [A202, 4-{[(3S)-9-(cyclohexylmethyl)-5-{[4-(3-fluoro-4-methoxyphenyl)piperazin-1-yl]sulfonyl}-3-methyl-1,5,9-triazacyclododecan-1-yl]sulfonyl}-N,N-dimethylaniline]
> 25	0.673	> 25	44.7	0.327	> 25	0.498	45.7	31.8	22.6	COc1cccc([C@@H]2CCCN(S(=O)(=O)N3CCCN(CC4CCCCC4)CCCN(S(=O)(=O)c4ccc(N(C)C)cc4)C[C@H](C)C3)C2)c1 [A209]
1.49	0.158	> 25	58.3	0.0584	0.982	0.134	49.7	62.6	48.4	C[C@H]1CN(S(=O)(=O)c2ccc(N(C)C)cc2)CCCN(CC2CCC(F)CC2)CCCN(S(=O)(=O)N2CCc3cc(Cl)ccc3C2)C1 (stereo partly drawn) [A204, 4-{[(3S)-5-[(6-chloro-1,2,3,4-tetrahydroisoquinolin-2-yl)sulfonyl]-9-[(4-fluorocyclohexyl)methyl]-3-methyl-1,5,9-triazacyclododecan-1-yl]sulfonyl}-N,N-dimethylaniline]
> 25	0.447	> 25	54.6	0.203	> 25	0.343	55.4	76.0	47.4	COc1ccccc1[C@@H]1CCCN(S(=O)(=O)N2CCCN(CC3CCCCC3)CCCN(S(=O)(=O)c3ccc(N(C)C)cc3)C[C@H](C)C2)C1 [A210]

Further lines, the molecule ahead of its results:

SMILES	EC50 [1] [µM]	IC50 [2] [µM]	EC50 [3] [µM]	Liver Microsome Stability-% Left after 30 min w/ NADPH (%) Rat [4] [%]	IC50 [5] [µM]	IC50 [6] [µM]	IC50 [7] [µM]	Liver Microsome Stability-% Left after 30 min w/ NADPH (%) Monkey [8] [%]	Liver Microsome Stability-% Left after 30 min w/ NADPH (%) Mouse [9] [%]	Liver Microsome Stability-% Left after 30 min w/ NADPH (%) Human [10] [%]
COc1cc(F)cc(N2CCN(S(=O)(=O)N3CCCN(CC4CCCCC4)CCCN(S(=O)(=O)c4ccc(N(C)C)cc4)C[C@H](C)C3)C[C@@H]2C)c1 [A194]	> 25	0.402	> 25	59.2	0.261	> 25	0.303	65.0	68.5	63.6
CCc1ccc(CNS(=O)(=O)N2CCCN(CC3CCCCC3)CCCN(S(=O)(=O)c3ccc(N(C)C)cc3)C[C@H](C)C2)cc1 [A189, (3S)-9-(cyclohexylmethyl)-5-[4-(dimethylamino)benzenesulfonyl]-N-[(4-ethylpheny)methyl]-3-methyl-1,5,9-triazacyclododecane-1-sulfonamide]	10.6	1.36	> 25	0.07	0.512	8.14	0.96	0.01	0.14	0.06
C[C@H]1CN(S(=O)(=O)c2ccc(N(C)C)cc2)CCCN(CC2CCCCC2)CCCN(S(=O)(=O)N(C)Cc2ccccc2)C1 [A184, (3S)-N-benzyl-9-(cyclohexylmethyl)-5-[4-(dimethylamino)benzenesulfonyl]-N,3-dimethyl-1,5,9-triazacyclododecane-1-sulfonamide]	6.92	0.233	> 25	7.47	0.1	1.08	0.156	1.23	5.64	2.56
COc1cc(F)ccc1N1CCN(S(=O)(=O)N2CCCN(CC3CCCCC3)CCCN(S(=O)(=O)c3ccc(N(C)C)cc3)CC3(CC3)C2)CC1 [A193]	6.81	0.0818	> 25	11.3	0.0238	0.748	0.0508	7.72	10.1	34.2
C[C@H]1CN(S(=O)(=O)c2ccc3c(ccn3C)c2)CCCN(CC2CCCCC2)CCCN(S(=O)(=O)N2CCc3cc(Cl)ccc3C2)C1 [A188, 6-chloro-2-{[(3S)-9-(cyclohexylmethyl)-3-methyl-5-[(1-methyl-1 H-indol-5-yl)sulfonyl]-1,5,9-triazacyclododecan-1-yl]sulfonyl}-1,2,3,4-tetrahydroisoquinoline]	1.56	0.0993	> 25	27.8	0.0389	0.714	0.088	12.4	4.48	27
COc1cc(F)cc(N2[C@H](C)CN(S(=O)(=O)N3CCCN(CC4CCCCC4)CCCN(S(=O)(=O)c4ccc(N(C)C)cc4)C[C@H](C)C3)C[C@@H]2C)c1 [A197]	4.13	0.0955	> 25	76.6	0.0343	0.666	0.0775	92.8	65.4	70.7
C[C@H]1CN(S(=O)(=O)c2ccc(N(C)C)cc2)CCCN(Cc2ccon2)CCCN(S(=O)(=O)N2CCc3cc(Cl)ccc3C2)C1 [A124, 4-{[(3S)-5-[(6-chloro-1,2,3,4-tetrahydroisoquinolin-2-yl)sulfonyl]-3-methyl-9-[(1,2-oxazol-3-yl)methyl]-1,5,9-triazacyclododecan-1-yl]sulfonyl}-N,N-dimethylaniline]	> 25	0.802	> 25	1.25	0.607	> 25	0.913	1.91	1.01	18.9
